Experimental data published in publication PMC5986654, “Combined HAT/EZH2 modulation leads to cancer-selective cell death” (Oncotarget, 2018).

What was measured:
[1] = test system: leukemia NB4 cells; test: Cell death induction in NB4 cells (FACS, pre-G1); type: cell-based, human; conditions: for effect on cell death, single inhibitor: C646 5 µM, GSK126 10 µM, used separately; for % Cell death NB4 cells: 3 μM, 30 h
[2] = biological target: GCN5 (Homo sapiens, UniProt Q92830); test: HAT in vitro assay, 10-dose IC50, GCN5; type: biochemical; conditions: substrate Histone H3, 3 μM Acetyl-CoA; read-out: Compound IC50 GCN5
Method: (§1) For HAT in vitro assay, MC2884 activity was also tested in vitro and IC50 was calculated as indicated in the scheme. […] Reactions were carried out at 3 μM Acetyl-CoA. Empty cells indicate no inhibition or compound activity that could not be fit to an IC50 curve.

[3] = biological target: pCAF (Homo sapiens, UniProt Q92831); test: HAT in vitro assay, 10-dose IC50, pCAF; type: biochemical; conditions: substrate Histone H3, 3 μM Acetyl-CoA; read-out: Compound IC50 pCAF
Method: as §1

[4] = biological target: CBP (Homo sapiens, UniProt Q92793); test: HAT in vitro assay, 10-dose IC50, CBP; type: biochemical; conditions: substrate Histone H3, 3 μM Acetyl-CoA; read-out: Compound IC50 CBP
Method: as §1

[5] = biological target: KAT5 (Homo sapiens, UniProt Q92993); test: HAT in vitro assay, 10-dose IC50, KAT5; type: biochemical; conditions: substrate Histone H2A, 3 μM Acetyl-CoA; read-out: Compound IC50 KAT5
Method: as §1

[6] = test system: neuroblastoma SHSY5Y cells; test: Cell death induction in SHSY5Y cells; type: cell-based; conditions: 3 μM, 48 h
Method: When tested in neuroblastoma SHSY5Y cells at tetrahydro-4H -pyran-4-one MC2912 failed in inducing
3 μM for 48 h, MC2884 and its analogues furnished cell death in SHSY5Y cells, whereas its thio-analogue
(Supplementary SAR Table 1). In general, the SHSY5Y similarly to what observed in NB4 cells.
than NB4 cells. Anyway, also in this cell line the death in both cell lines such as MC2910, 2912, 2909,
(MC2909), and bis 3,5-dibromophenyl (MC2910) were acetylation and EZH2 deregulation (SAR Figure 2). In […]
3-phenyl-1-propan-1-one chain at N1 (MC3187), which 3).

Chain of GCN5 (Q92830 whole entry): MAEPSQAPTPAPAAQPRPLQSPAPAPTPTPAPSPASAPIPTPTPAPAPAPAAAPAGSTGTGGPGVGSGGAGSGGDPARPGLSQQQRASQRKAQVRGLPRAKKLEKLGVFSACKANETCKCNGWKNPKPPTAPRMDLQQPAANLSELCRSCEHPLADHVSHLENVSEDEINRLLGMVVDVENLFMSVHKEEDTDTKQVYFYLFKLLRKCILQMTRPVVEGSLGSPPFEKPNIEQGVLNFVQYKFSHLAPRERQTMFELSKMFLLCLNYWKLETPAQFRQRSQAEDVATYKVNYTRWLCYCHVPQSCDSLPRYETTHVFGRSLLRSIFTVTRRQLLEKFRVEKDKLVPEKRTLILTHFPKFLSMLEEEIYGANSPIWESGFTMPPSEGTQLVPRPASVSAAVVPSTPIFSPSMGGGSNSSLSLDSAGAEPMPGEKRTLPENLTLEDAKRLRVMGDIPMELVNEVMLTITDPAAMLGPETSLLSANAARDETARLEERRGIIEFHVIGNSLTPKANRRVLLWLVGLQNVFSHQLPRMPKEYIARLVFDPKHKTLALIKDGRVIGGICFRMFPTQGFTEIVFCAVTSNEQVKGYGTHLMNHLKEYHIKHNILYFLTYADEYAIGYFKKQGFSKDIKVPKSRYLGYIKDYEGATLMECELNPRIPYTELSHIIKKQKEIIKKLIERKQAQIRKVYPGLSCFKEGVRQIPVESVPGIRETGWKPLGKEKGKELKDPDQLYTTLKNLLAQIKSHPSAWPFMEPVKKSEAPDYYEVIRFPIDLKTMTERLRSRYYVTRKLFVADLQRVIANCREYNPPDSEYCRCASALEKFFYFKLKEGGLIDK
Chain of CBP (Q92793 whole entry): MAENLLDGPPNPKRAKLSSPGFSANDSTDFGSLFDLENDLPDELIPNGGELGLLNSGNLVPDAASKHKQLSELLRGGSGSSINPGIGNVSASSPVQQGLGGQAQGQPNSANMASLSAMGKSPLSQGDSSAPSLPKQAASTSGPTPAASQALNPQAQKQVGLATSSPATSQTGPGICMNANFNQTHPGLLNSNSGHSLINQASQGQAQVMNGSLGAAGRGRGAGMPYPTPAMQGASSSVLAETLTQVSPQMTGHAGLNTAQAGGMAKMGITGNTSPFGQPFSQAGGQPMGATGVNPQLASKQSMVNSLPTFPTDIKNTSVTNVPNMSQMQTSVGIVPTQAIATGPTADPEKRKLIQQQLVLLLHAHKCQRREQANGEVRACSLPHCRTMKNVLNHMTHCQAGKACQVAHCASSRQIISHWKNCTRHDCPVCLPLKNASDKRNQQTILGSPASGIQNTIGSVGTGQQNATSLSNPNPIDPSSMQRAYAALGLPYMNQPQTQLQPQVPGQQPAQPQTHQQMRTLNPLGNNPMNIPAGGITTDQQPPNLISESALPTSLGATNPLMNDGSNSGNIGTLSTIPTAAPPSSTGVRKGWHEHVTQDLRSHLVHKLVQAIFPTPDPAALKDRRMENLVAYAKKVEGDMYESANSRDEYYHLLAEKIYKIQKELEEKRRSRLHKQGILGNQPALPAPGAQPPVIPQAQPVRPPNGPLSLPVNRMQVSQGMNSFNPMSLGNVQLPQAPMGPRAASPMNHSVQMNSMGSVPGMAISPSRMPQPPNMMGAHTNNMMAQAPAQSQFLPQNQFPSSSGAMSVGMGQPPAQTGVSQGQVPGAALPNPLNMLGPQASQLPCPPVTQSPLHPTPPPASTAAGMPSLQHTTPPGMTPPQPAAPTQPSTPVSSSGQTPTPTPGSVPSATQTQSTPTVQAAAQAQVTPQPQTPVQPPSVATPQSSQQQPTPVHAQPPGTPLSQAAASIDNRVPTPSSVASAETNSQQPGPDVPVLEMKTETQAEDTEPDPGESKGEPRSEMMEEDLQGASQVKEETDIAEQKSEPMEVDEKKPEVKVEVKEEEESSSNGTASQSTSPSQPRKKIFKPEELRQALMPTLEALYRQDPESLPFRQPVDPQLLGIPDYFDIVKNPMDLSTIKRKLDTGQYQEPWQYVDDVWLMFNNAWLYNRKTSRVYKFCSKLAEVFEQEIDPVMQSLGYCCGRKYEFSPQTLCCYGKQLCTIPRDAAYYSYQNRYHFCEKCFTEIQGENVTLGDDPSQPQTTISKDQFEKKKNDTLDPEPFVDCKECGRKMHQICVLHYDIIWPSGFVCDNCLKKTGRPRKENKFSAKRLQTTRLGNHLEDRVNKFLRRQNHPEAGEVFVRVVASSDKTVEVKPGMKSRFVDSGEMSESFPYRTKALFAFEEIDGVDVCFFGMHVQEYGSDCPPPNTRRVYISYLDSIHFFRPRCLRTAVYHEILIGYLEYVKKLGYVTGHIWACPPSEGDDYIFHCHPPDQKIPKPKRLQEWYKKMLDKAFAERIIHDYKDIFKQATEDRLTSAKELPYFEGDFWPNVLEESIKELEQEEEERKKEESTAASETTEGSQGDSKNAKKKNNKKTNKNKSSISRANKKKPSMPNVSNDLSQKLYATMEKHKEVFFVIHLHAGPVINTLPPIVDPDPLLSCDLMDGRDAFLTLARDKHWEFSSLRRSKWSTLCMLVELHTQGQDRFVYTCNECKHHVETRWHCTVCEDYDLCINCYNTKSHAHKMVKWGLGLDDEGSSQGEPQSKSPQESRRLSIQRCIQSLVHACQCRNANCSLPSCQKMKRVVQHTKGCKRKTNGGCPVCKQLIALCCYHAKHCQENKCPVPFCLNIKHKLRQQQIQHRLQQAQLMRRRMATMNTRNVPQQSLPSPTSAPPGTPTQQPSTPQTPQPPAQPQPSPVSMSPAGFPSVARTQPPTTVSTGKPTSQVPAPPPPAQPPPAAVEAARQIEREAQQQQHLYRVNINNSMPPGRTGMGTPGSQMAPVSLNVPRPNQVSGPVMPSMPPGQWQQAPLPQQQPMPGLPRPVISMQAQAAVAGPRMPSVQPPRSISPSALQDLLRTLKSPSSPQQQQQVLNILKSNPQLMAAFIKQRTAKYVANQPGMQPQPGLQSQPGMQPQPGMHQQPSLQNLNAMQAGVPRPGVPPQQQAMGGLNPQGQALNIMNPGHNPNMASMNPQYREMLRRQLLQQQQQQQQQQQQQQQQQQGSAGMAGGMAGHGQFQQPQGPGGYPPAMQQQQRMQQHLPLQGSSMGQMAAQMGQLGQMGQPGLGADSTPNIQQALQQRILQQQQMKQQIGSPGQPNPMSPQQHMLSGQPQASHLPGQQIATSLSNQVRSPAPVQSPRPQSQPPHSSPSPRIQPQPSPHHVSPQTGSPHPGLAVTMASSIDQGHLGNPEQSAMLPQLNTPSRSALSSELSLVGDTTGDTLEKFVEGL
Chain of pCAF (Q92831 whole entry): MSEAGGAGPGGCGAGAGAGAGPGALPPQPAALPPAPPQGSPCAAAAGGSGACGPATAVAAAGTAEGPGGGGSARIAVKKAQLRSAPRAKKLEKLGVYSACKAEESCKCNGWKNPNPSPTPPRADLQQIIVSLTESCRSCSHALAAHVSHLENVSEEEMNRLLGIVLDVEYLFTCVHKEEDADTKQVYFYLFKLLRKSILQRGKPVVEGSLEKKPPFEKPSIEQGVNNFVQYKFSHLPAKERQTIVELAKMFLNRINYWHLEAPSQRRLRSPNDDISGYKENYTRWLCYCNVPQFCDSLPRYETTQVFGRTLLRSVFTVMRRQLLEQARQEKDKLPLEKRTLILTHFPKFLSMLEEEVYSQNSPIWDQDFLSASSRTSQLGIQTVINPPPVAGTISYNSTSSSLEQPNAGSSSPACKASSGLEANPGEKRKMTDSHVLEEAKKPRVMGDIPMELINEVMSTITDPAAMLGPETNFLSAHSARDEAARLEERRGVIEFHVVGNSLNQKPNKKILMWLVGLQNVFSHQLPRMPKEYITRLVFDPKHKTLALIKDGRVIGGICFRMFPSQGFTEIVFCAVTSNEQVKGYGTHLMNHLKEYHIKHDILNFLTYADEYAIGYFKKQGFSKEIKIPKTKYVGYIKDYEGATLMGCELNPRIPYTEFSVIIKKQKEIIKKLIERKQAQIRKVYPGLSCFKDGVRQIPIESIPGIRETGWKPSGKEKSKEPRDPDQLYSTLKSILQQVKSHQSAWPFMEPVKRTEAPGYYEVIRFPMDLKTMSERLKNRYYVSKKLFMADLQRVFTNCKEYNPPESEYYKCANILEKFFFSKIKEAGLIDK
Chain of KAT5 (Q92993 whole entry): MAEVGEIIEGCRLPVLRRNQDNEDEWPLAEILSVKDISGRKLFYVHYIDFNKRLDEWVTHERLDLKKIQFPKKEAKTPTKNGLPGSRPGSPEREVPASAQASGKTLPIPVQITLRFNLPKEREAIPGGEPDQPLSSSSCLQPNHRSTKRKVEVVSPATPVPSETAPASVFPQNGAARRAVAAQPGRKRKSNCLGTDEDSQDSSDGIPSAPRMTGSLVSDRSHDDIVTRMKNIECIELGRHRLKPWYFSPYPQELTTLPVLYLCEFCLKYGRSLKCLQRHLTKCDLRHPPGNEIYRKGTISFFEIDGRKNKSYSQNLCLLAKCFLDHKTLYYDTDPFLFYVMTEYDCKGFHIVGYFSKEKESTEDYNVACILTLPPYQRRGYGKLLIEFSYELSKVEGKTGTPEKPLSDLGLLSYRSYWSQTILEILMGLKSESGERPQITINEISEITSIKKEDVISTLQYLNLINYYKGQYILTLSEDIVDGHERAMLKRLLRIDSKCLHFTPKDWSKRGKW

SMILES	% Cell death NB4 cells [1]	% Cell death SHSY5Y cells [6]	other results
CN(C)CC[C@H](CSc1ccccc1)Nc1ccc(S(=O)(=O)NC(=O)c2ccc(N3CCN(Cc4ccccc4-c4ccc(Cl)cc4)CC3)cc2)cc1[N+](=O)[O-] [ABT-737, reference compound]			cell death, ABT-737 with addition of MC2884 ([1]; NB4 cells, ABT-737 1 µM plus MC2884 at concentrations that alone induced little apoptosis): up to 60%
CCCCCCCCCCCCCCCc1cccc(O)c1C(=O)O [Anacardic Acid]			IC50 [2]: 38.6 µM; IC50 [3]: 38.8 µM
CC1=NN(c2ccc(C(=O)O)cc2)C(=O)/C1=C\c1ccc(-c2cc(C)c(C)cc2[N+](=O)[O-])o1 [C646, reference compound]			IC50 [4]: 0.0787 µM; IC50 [5]: 20.4 µM; effect on cell death, single inhibitor ([1]; NB4 cells): no effects
CC[C@H](C)n1cc(C)c2c(C(=O)NCc3c(C)cc(C)[nH]c3=O)cc(-c3ccc(N4CCNCC4)nc3)cc21 [GSK126, reference compound]			effect on cell death, single inhibitor ([1]; NB4 cells): no effects
O=C(/C=C/c1ccc(Br)cc1)/C=C/c1ccc(Br)cc1 [MC2886]	0,56%	1,2%	
O=C1C(=Cc2ccccc2Br)CN(Cc2ccccc2)CC1=Cc1ccccc1Br [MC2908]	30.3%	9.2%	
O=C1C(=Cc2ccc(Br)cc2)CN(Cc2ccccc2)CC1=Cc1ccc(Br)cc1 [MC2909]	8.8%	4.7%	
O=C1/C(=C/c2cccc(Br)c2)CCC/C1=C\c1cccc(Br)c1 [MC2911]	0,76%	0,8%	
O=C1C(=Cc2cccc(Br)c2)CSCC1=Cc1cccc(Br)c1 [MC2913]	52.7%	23.9%	
CN1CC(=Cc2cccc(Br)c2)C(=O)C(=Cc2cccc(Br)c2)C1 [MC2914]	36%	9.0%	
O=C1C(=Cc2cccc(Br)c2)CN(C(=O)c2ccccc2)CC1=Cc1cccc(Br)c1 [MC3146]	13.2%	5.6%	
O=C1C(=Cc2cccc(Br)c2)CN(C(=O)CCc2ccccc2)CC1=Cc1cccc(Br)c1 [MC3187]	28.9%	19.9%	
O=C1C(=Cc2cccc(Br)c2)CN(CC(=O)c2ccccc2)CC1=Cc1cccc(Br)c1 [MC3207]	38%	7.0%	
O=C1C(=Cc2cccc(Br)c2)CN(CCc2ccccc2)CC1=Cc1cccc(Br)c1 [MC3269]	62.5%	19.2%	
O=C1/C(=C/c2ccc(O)cc2Br)CN(Cc2ccccc2)C/C1=C\c1ccc(O)cc1Br [MC3395]	0,53%	1,0%	
